Broadly, the IC50 is the point on the concentration scale where inhibition reaches its midpoint. Read a low IC50 as inhibition by little substance.

This note sets out measurements from US6313095A, “Antiherpes tetrapeptide derivatives having a substituted aspartic acid side chain” (Boehringer Ingelheim (Canada), Ltd., priority 1989, dated 2001).

Where a SMILES comes first, the peptide text is derived from it. [ ]: non-standard residue; d: D form. The star is where a group is joined. Asp(3,3-(CH2)4) = N[C@H](C(=O)O)C1(C(=O)O)CCCC1; Gly(1-COOH-cBu) = N[C@H](C(=O)O)C1(C(=O)O)CCC1; Benzoyl(2-Ph) = O=C(c1ccccc1-c1ccccc1)*; Pentanoyl(4-Me) = CC(C)CCC(=O)*; X5 = CC(C)C(CCCCc1ccccc1)C(=O)*; Butanoyl(2-Et) = CCC(CC)C(=O)*; O(2S-octyl) = CCCCCC[C@H](C)O*; Tle = CC(C)(C)[C@H](N)C(=O)O; Leu(ol) = CC(C)C[C@H](N)CO; Hiv = CC(C)[C@H](O)C(=O)O; Isovaleryl = CC(C)CC(=O)*; Morpholide = C1CN(*)CCO1; Pyrrolidide = C1CCN(*)C1; X6 = CCCCCCCCN(C)*; Bn = c1ccc(C*)cc1

The target of the test is T1, HSV-1 ribonucleotide reductase (Human herpesvirus 1, UniProt P08543).
T1 construct: HSV-1 ribonucleotide reductase (partially purified) was obtained from quiescent BHK-21/C13 cells infected with strain F HSV-1 virus; endogenous in cells; host or cells: quiescent BHK-21/C13 (hamster) cells infected with HSV-1 strain F; partially purified enzyme preparation
T1 sequence (P08543 whole entry): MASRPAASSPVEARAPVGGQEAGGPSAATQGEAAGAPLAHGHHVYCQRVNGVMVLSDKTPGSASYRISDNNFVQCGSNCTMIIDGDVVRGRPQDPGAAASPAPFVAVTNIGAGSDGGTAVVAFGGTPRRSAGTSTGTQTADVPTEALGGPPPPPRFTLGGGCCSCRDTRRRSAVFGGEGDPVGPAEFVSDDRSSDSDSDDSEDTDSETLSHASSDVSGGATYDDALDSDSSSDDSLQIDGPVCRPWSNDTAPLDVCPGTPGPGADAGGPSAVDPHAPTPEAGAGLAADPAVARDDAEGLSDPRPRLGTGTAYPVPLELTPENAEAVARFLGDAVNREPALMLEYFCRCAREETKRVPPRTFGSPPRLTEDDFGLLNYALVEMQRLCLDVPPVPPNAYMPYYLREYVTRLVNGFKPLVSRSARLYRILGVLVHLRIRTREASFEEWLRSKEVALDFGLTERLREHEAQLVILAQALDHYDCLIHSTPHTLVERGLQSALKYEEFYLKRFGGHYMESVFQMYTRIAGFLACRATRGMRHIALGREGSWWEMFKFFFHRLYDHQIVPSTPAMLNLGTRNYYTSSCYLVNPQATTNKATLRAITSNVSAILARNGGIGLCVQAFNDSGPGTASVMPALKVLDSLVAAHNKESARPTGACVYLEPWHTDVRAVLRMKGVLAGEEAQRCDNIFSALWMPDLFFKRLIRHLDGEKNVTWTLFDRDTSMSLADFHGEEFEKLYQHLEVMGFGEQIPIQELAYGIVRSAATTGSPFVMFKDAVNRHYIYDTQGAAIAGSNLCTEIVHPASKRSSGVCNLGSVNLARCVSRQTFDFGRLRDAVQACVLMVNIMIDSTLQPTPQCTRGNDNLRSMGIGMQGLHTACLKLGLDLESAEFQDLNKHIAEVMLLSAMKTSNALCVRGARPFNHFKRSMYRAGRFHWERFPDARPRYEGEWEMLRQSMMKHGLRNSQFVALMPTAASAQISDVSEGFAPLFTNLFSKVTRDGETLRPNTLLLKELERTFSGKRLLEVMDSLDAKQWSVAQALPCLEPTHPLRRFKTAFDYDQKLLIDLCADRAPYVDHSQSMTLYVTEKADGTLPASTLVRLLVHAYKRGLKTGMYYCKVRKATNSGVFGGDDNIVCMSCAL
The experiment in a line: Inhibition of Herpes Simplex Virus (HSV, Type 1) Ribonucleotide Reductase. It is filed as biochemical, herpes simplex virus type 1 (strain F). The conditions noted are these: concentration producing 50% of the maximal inhibition of enzyme activity; partially purified enzyme; mean of four assays. The source says:
Inhibition of Herpes Simplex Virus (HSV, Type 1) Ribonucleotide Reductase
HSV-1 ribonucleotide reductase (partially purified) was obtained from quiescent BHK-21/C13 cells infected with strain F HSV-1 virus at 10 plaque forming units/cell as described by E. A. Cohen et al., J. Gen. Virol., 66, 733 (1985).
b) Assay and Results for Exemplified Peptides
By following the procedure described by P. Gaudreau et al., J. Biol, Chem., 262, 12413 (1987), the assay results listed in the following table were obtained. The assay result for each peptide is expressed as the concentration of the peptide producing 50% of the maximal inhibition (IC50) of enzyme activity. The number of units of the enzyme preparation used in each assay was constant, based on the specific activity of the enzyme preparation. The results are relative to the activity obtained in control experiments without peptide and represent the mean of four assays that varied less than 10% with each other.
In turn, `CCCCCC[C@H](C)OC(=O)C[C@H](NC(=O)[C@@H](NC(=O)CCC(C)C)[C@@H](C)CC)C(=O)N[C@@H](CC(=O)O)C(=O)N[C@@H](CC(C)C)C(=O)O` [(CH3)2 CHCH2 CH2 CO-Ile-Asp(1-methylheptyloxy)-Asp-Leu-OH] ({Pentanoyl(4-Me)}-ID(O(2S-octyl))DL-OH) had an IC50 greater than 10 µM.

For `CC[C@H](C)[C@H](NC(=O)c1ccccc1-c1ccccc1)C(=O)N[C@@H](CC(=O)N1CCCC1)C(=O)N[C@@H](CC(=O)O)C(=O)N[C@@H](CC(C)C)C(=O)O` [2-Biphenylylcarbonyl-Ile-Asp(pyrrolidino)-Asp-Leu-OH] ({Benzoyl(2-Ph)}-ID(Pyrrolidide)DL-OH), the 50% inhibitory concentration (IC50) was 3.6 µM.

With `CC[C@H](C)[C@H](NC(=O)c1ccccc1-c1ccccc1)C(=O)N[C@@H](CC(=O)N1CCOCC1)C(=O)N[C@@H](CC(=O)O)C(=O)N[C@@H](CC(C)C)C(=O)O` [2-Biphenylylcarbonyl-Ile-Asp(morpholino)-Asp-Leu-OH] ({Benzoyl(2-Ph)}-ID(Morpholide)DL-OH), the concentration for half-maximal inhibition (IC50) worked out at 7.2 µM.

`CCC(CC)C(=O)N[C@H](C(=O)N[C@@H](CC(=O)N1CCCC1)C(=O)N[C@@H](CC(=O)O)C(=O)N[C@H](CO)CC1CCCCC1)C(C)(C)C` [(C2 H5)CHCO-Tbg-Asp(pyrrolidino)-Asp-NH--CH(cyclohexylmethyl)CH2 OH] gave a concentration for half-maximal inhibition (IC50) of 10.5 µM.

As for `CCC(CC)C(=O)N[C@H](C(=O)N[C@@H](CC(=O)N1CCCC1)C(=O)N[C@@H](CC(=O)O)C(=O)NCCC(C)(C)C)C(C)(C)C` [(C2 H5)2 CHCO-Tbg-Asp(pyrrolidino)-Asp-NHCH2 CH2 C(CH)3], the IC50 is 18 µM.

As to `CC[C@H](C)[C@H](NC(=O)c1ccccc1-c1ccccc1)C(=O)N[C@@H](CC(=O)N1CCCC1)C(=O)N[C@@H](CC(=O)O)C(=O)N[C@@H](CC(C)C)c1nnn[nH]1` [2-Biphenylcarbonyl-Ile-Asp(pyrrolidino)-Asp-NHCH--[CH2 CH(CH3)2-5-1H-tetrazole], inhibition was half-maximal at 13.8 µM (IC50).

As to `CCC(CC)C(=O)N[C@H](C(=O)N[C@@H](CC(=O)N1CCCC1)C(=O)N[C@@H](CC(=O)O)C(=O)N[C@@H](CC(C)C)C(=O)O)[C@@H](C)OCc1ccccc1` [(C2 H5)2 CHCO-Thr(OBz)-Asp(pyrrolidino)-Asp-Leu-OH] ({Butanoyl(2-Et)}-T(Bn)D(Pyrrolidide)DL-OH), the half-inhibitory concentration (IC50) was determined as 3.4 µM.

The compound `CC(C)C[C@H](NC(=O)[C@H](CC(=O)O)NC(=O)[C@H](CC(=O)N1CCCC1)NC(=O)[C@@H](NC(=O)[C@@H](O)C(C)C)C(C)(C)C)C(=O)O` [[(S)-(CH3)2 CHCH(OH)CO]-Tbg-Asp(pyrrolidino)-Asp-Leu-OH] (H-[Hiv][Tle]D(Pyrrolidide)DL-OH) gave a half-maximal inhibitory concentration (IC50) of 2.8 µM.

The compound `CC[C@H](C)[C@H](NC(=O)C(CCCCc1ccccc1)C(C)C)C(=O)N[C@@H](CC(=O)N1CCCC1)C(=O)N[C@@H](CC(=O)O)C(=O)N[C@@H](CC(C)C)C(=O)O` (stereo partly drawn) [[d,1-Ph(CH2)4 -CH[CH(CH3)2 ]CO]-Ile-Asp(pyrrolidino)-Asp-Leu-OH] (X5-ID(Pyrrolidide)DL-OH) returned an IC50 of 1.3 µM.

Compound `CCCCC(C(=O)O)[C@H](NC(=O)[C@H](CC(=O)N1CCCC1)NC(=O)[C@@H](NC(=O)C(CC)CC)C(C)(C)C)C(=O)N[C@@H](CC(C)C)C(=O)O` (some centres unmarked) [(C2 H5)2 CHCO-Tbg-Asp(pyrrolidino)-Asp(Bu)-Leu-OH] had an IC50 of 2 µM.

Compound `CCCCCC[C@H](C)OC(=O)C[C@H](NC(=O)[C@@H](NC(=O)C(CC)CC)C(C)(C)C)C(=O)N[C@H](C(=O)N[C@@H](CC(C)C)C(=O)O)C1(C(=O)O)CCCC1` [(C2 H5)2 CHCO-Tbg-Asp(1-methylheptyloxy)-Asp(cyPn)-Leu-OH] ({Butanoyl(2-Et)}-[Tle]D(O(2S-octyl))[Asp(3,3-(CH2)4)]L-OH) displayed an IC50 of 0.37 µM.

`CCC(CC)C(=O)N[C@H](C(=O)N[C@@H](CC(=O)N1CCCC1)C(=O)N[C@H](C(=O)N[C@H](CO)CC(C)C)C1(C(=O)O)CCCC1)C(C)(C)C` [(C2 H3)2 CHCO-Tbg-Asp(pyrrolidino)-Asp(cyPn)-(L-leucinol)] ({Butanoyl(2-Et)}-[Tle]D(Pyrrolidide)[Asp(3,3-(CH2)4)][Leu(ol)]) came in with an IC50 of 0.5 µM. This IC50 and that of the compound before are within 1.5-fold of each other.

Consider `CCC(CC)C(=O)N[C@H](C(=O)N[C@@H](CC(=O)N1CCCC1)C(=O)N[C@@H](CC(=O)O)C(=O)NCCC(C)(C)C)[C@@H](C)OC` [(C2 H5)2 CHCO-Thr(OMe)-Asp(pyrrolidino)-Asp-NHCH2 CH2 C(CH3)3], for which the IC50 was 75 µM.

`CCC(CC)C(=O)N[C@H](C(=O)N[C@@H](CC(=O)N1CCCC1)C(=O)N[C@@H](CC(=O)O)C(=S)N[C@@H](CC(C)C)C(=O)O)C(C)(C)C` [(C2 H5)2 CHCO-Tbg-Asp(pyrrolidino)-Asp.PSI.[CSNH]Leu-OH] returned a half-maximal inhibitory concentration (IC50) of 1.9 µM.

`CC[C@H](C)[C@H](NC(=O)CC(C)C)C(=O)N[C@@H](CC(=O)N1CCCC1)C(=O)N[C@@H](CC(=O)O)C(=O)N[C@@H](CC(C)C)C(=O)O` [(CH3)2 CHCH2 CO-Ile-Asp(pyrrolidino)-Asp-Leu-OH] (Isovaleryl-ID(Pyrrolidide)DL-OH) came in with a half-maximal inhibitory concentration (IC50) of 2.7 µM.

`CCC(CC)C(=O)N[C@H](C(=O)N[C@@H](CC(=O)N1CCCC1)C(=O)N[C@@H](CC(=O)O)C(=O)N[C@H](CO)[C@@H](C)CC)C(C)(C)C` [(C2 H5)2 CHCO-Tbg-Asp(pyrrolidino)-Asp-(L-isoleucinol)] registered an IC50 of 11 µM.

`CCCCCCCCN(C)C(=O)C[C@H](NC(=O)[C@@H](NC(=O)C(CC)CC)C(C)(C)C)C(=O)N[C@H](C(=O)N[C@@H](CC(C)C)C(=O)O)C1(C(=O)O)CCC1` [(C2 H5)2 CHCO-Tbg-Asp(N-Me-N-octyl)-Asp(cyBu)-Leu-OH] ({Butanoyl(2-Et)}-[Tle]D(X6)[Gly(1-COOH-cBu)]L-OH): the IC50 amounted to 0.2 µM.
